Laboratory results reported in the supplement of paper PMC10627819.

Tests used:
B. subtilis 168 [1] = experiment: fitness (endpoint OD595 vs no drug) (fraction); higher = more growth
In short: (§1)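 Cultures at OD595 0.01 were dispensed into 384-well plates in TSB, LB Lennox or CY and incubated at 37 °C. Every 30 min for 14 h, OD595 was read and corrected by the first reading. Fitness is the optical density at entry into stationary phase relative to the robust mean of no-drug control wells, capped at 1.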

S. aureus Newman [2] = experiment: as above
In short: as §1

S. pneumoniae D39V [3] = experiment: as above
In short: as §1

B. subtilis 168 [4] = experiment: Bliss interaction score (quartile over a dose matrix) (fitness difference); higher = more antagonism (negative = synergy)
In short: (§2)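 Fitness is OD595 at stationary-phase entry relative to the plate's robust no-drug mean, capped at 1. Single-drug fitness was inferred from combinations. The Bliss score is observed minus product-expected fitness, summarised by quartiles over technical, biological and donor/recipient replicates.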

S. aureus DSM 20231 = experiment: as above
In short: as §2

S. aureus Newman [5] = experiment: as above
In short: as §2

S. pneumoniae D39V [6] = experiment: as above
In short: as §2
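Wherever Bliss interaction score (quartile over a dose matrix) is given: first quartile when negative (synergy) and third quartile when positive (antagonism).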

C[C@@H]1O[C@@H]1P(=O)(O)O [Fosfomycin] + CN[C@@H]1[C@H](O[C@H]2[C@H](O[C@H]3[C@H](O)[C@@H](O)[C@H](N=C(N)N)[C@@H](O)[C@@H]3N=C(N)N)O[C@@H](C)[C@]2(O)C=O)O[C@@H](CO)[C@H](O)[C@H]1O [Streptomycin]
fitness
Conditions	partner 1 µg/mL	partner 2 µg/mL	partner 4 µg/mL	partner 8 µg/mL
B. subtilis 168 [1], first compound 1.562 µg/mL	–	0.664	–	–
B. subtilis 168 [1], first compound 3.124 µg/mL	–	0.399	–	–
S. aureus Newman [2], first compound 0.781 µg/mL	0.599	0.565	–	–
S. aureus Newman [2], first compound 1.562 µg/mL	0.517	0.467	–	–
S. aureus Newman [2], first compound 3.124 µg/mL	0.156	0.131	0.0427	–
S. pneumoniae D39V [3], first compound 1.25 µg/mL	–	0.919	0.921	0.902
S. pneumoniae D39V [3], first compound 2.5 µg/mL	–	0.903	0.9	0.918
S. pneumoniae D39V [3], first compound 5 µg/mL	–	0.715	0.747	0.722

S. pneumoniae D39V [3], partner 16 µg/mL, one replicate
Conditions	fitness
first compound 1.25 µg/mL	0.765
first compound 2.5 µg/mL	0.714
first compound 5 µg/mL	0.436

Conditions	Bliss interaction score
B. subtilis 168 [4]	-0.187
S. aureus DSM 20231	-0.14
S. aureus Newman [5]	-0.106
S. pneumoniae D39V [6]	-0.0437

O=C(O)c1cn(C2CC2)c2cc(N3CCNCC3)c(F)cc2c1=O [Ciprofloxacin] + Cc1ncc([N+](=O)[O-])n1CCO [Metronidazole]
Conditions	fitness
B. subtilis 168 [1], first compound 0.0098 µg/mL, partner 0.625 µg/mL	0.951
B. subtilis 168 [1], first compound 0.0098 µg/mL, partner 1.25 µg/mL	0.922
B. subtilis 168 [1], first compound 0.0098 µg/mL, partner 2.5 µg/mL	0.89
B. subtilis 168 [1], first compound 0.0195 µg/mL, partner 0.625 µg/mL	0.771
B. subtilis 168 [1], first compound 0.0195 µg/mL, partner 1.25 µg/mL	0.75
B. subtilis 168 [1], first compound 0.0195 µg/mL, partner 2.5 µg/mL	0.727
B. subtilis 168 [1], first compound 0.039 µg/mL, partner 1.25 µg/mL	0.29
B. subtilis 168 [1], first compound 0.039 µg/mL, partner 2.5 µg/mL	0.222
S. aureus Newman [2], first compound 0.0375 µg/mL, partner 0.625 µg/mL	0.649
S. aureus Newman [2], first compound 0.0375 µg/mL, partner 1.25 µg/mL	0.694
S. aureus Newman [2], first compound 0.0375 µg/mL, partner 2.5 µg/mL	0.693
S. aureus Newman [2], first compound 0.075 µg/mL, partner 0.625 µg/mL	0.725
S. aureus Newman [2], first compound 0.075 µg/mL, partner 2.5 µg/mL	0.732
S. aureus Newman [2], first compound 0.15 µg/mL, partner 2.5 µg/mL	0.0713
S. pneumoniae D39V [3], first compound 0.125 µg/mL, partner 1.073 µg/mL	0.935
S. pneumoniae D39V [3], first compound 0.125 µg/mL, partner 1.25 µg/mL	0.98
S. pneumoniae D39V [3], first compound 0.125 µg/mL, partner 2.145 µg/mL	0.894
S. pneumoniae D39V [3], first compound 0.125 µg/mL, partner 2.5 µg/mL	0.987
S. pneumoniae D39V [3], first compound 0.125 µg/mL, partner 4.29 µg/mL	0.916
S. pneumoniae D39V [3], first compound 0.125 µg/mL, partner 5 µg/mL	0.983
S. pneumoniae D39V [3], first compound 0.25 µg/mL, partner 1.073 µg/mL	0.923
S. pneumoniae D39V [3], first compound 0.25 µg/mL, partner 2.145 µg/mL	0.895
S. pneumoniae D39V [3], first compound 0.25 µg/mL, partner 4.29 µg/mL	0.892
S. pneumoniae D39V [3], first compound 0.5 µg/mL, partner 1.073 µg/mL	0.711
S. pneumoniae D39V [3], first compound 0.5 µg/mL, partner 2.5 µg/mL	0.781
S. pneumoniae D39V [3], first compound 0.5 µg/mL, partner 4.29 µg/mL	0.69
S. pneumoniae D39V [3], first compound 0.5 µg/mL, partner 5 µg/mL	0.81

fitness, one replicate
Conditions	partner 0.781 µg/mL	partner 1.25 µg/mL	partner 1.562 µg/mL	partner 2.5 µg/mL	partner 3.124 µg/mL	partner 5 µg/mL
S. aureus Newman [2], first compound 0.0375 µg/mL	0.653	–	0.663	–	0.644	–
S. aureus Newman [2], first compound 0.075 µg/mL	0.648	–	0.736	–	0.703	–
S. aureus Newman [2], first compound 0.15 µg/mL	0.0339	–	0.0507	–	0.0416	–
S. pneumoniae D39V [3], first compound 0.25 µg/mL	–	0.903	–	0.911	–	0.902

Conditions	Bliss interaction score
B. subtilis 168 [4]	0.0696
S. aureus DSM 20231	0.0471
S. aureus Newman [5]	0.0782
S. pneumoniae D39V [6]	0.0544

O=C(O)c1cn(C2CC2)c2cc(N3CCNCC3)c(F)cc2c1=O [Ciprofloxacin] + CN[C@@H]1[C@H](O)[C@H](NC)[C@H]2O[C@@]3(O)C(=O)C[C@@H](C)O[C@H]3O[C@@H]2[C@H]1O [Spectinomycin]
fitness
Conditions	partner 2 µg/mL	partner 4 µg/mL	partner 8 µg/mL	partner 16 µg/mL
B. subtilis 168 [1], first compound 0.0098 µg/mL	0.949	0.897	0.94	–
B. subtilis 168 [1], first compound 0.0195 µg/mL	0.694	0.741	0.789	–
B. subtilis 168 [1], first compound 0.039 µg/mL	–	0.257	–	–
S. aureus Newman [2], first compound 0.0375 µg/mL	–	0.643	0.666	0.622
S. aureus Newman [2], first compound 0.075 µg/mL	–	0.627	–	0.615
S. aureus Newman [2], first compound 0.15 µg/mL	–	–	0.0938	0.0557
S. pneumoniae D39V [3], first compound 0.125 µg/mL	–	0.919	0.913	0.706
S. pneumoniae D39V [3], first compound 0.25 µg/mL	–	0.797	0.795	–
S. pneumoniae D39V [3], first compound 0.5 µg/mL	–	–	–	0.446

fitness, one replicate
Conditions	first compound 0.078 µg/mL	first compound 0.156 µg/mL	first compound 0.25 µg/mL	first compound 0.312 µg/mL
S. aureus Newman [2], partner 16 µg/mL	0.203	0.0195	–	0.0278
S. aureus Newman [2], partner 32 µg/mL	0.116	0.0216	–	0.0094
S. aureus Newman [2], partner 64 µg/mL	0.0489	0.0519	–	0.102
S. pneumoniae D39V [3], partner 16 µg/mL	–	–	0.48	–

Conditions	Bliss interaction score
B. subtilis 168 [4]	0.0965
S. aureus DSM 20231	0.0785
S. aureus Newman [5]	-0.0629
S. pneumoniae D39V [6]	-0.0847
